The text below walks through data of patent US6696470B2, “Pyridylthiophene compounds” (Pfizer Inc., priority 1997, dated 2004).

Usually melting point stands for the temperature of the solid-liquid transition. Turning to `O=C1CCc2c(-c3ccncc3)sc(-c3ccc(C(F)(F)F)cc3)c21` [Example 66, 1-(4-Pyridyl)-3-(4-trifluoromethylphenyl)-5,6-dihydro-4H-cyclopenta(c)thiophene-4-one], the melting point was 158 to 160 °C.

Consider `O=C1CCc2c(-c3ccc(F)cc3)sc(-c3ccncc3)c21` [Example 67, 1-(4-Fluorophenyl)-3-(4-pyridyl)-5,6-dihydro-4H-cyclopenta(c)thiophene-4-one], for which the melting point lay within 155 to 157 °C.

Turning to `NC(=O)CCc1cc(-c2ccncc2)sc1-c1ccncc1` [Example 70, 3-[2,5-di-(4-pyridyl)3-thienyl]propionamide], the melting point lay in the range of 196 to 196.5 °C.
